In PubChem BioAssay AID1902 (Broad Institute, 2009):
Active and inactive are the calls of the source.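 How the source made its calls: active means EC50 no more than a set limit of log units above the highest dose; inactive means the rest.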

Molecular target: S. pyogenes SKKanGAS, kanamycin survival, BacTiterGlo, 6 h
Test: SKKanGAS survival reduction under kanamycin, dose response, streptokinase promoter inhibitor project, SKKanGAS strain, luminescence, dose confirmation (AID 1902);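 further: lower survival reflects blocked streptokinase promoter driving kanamycin resistance gene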

SMILES | EC50
Clc1ccc(SCc2cc(Cl)nc(-c3ccccc3)n2)cc1 | > 15 µM (inactive)
O=c1cc(-c2ccccc2)nc2c(-c3ccccc3)c(C(F)(F)F)[nH]n12 | 3.23 µM
CC(C)COC(=O)c1cccc2c1-c1ccccc1/C2=N\O | 4.99 µM
NC(=O)NC(=O)CSc1nc2sc(-c3ccccc3)cc2c(=O)n1-c1ccccc1 | 1.18 µM
CCC(C(=O)NCC1CCCO1)n1nc(C)c2sc3ccccc3c2c1=O (configuration not stated) | > 15 µM (inactive)
Cc1cccnc1NCc1ccc(O)c2ncccc12 | 5.65 µM
Cc1ccc(C(=O)NC2CCCC2)s1 | > 15 µM (inactive)
CC(C)(C)CC(=O)N1CCC(c2nc3c(nnn3Cc3c(F)cccc3Cl)c(=O)[nH]2)CC1 | 2.8 µM
O=C(Nc1nnc(-c2ccco2)o1)c1ccc(Cl)cc1 | 1.21 µM
C/C(=N\NC(=O)CSc1nc(C)[nH]c1[N+](=O)[O-])c1ccc(F)cc1 | > 15 µM (inactive)
Cc1nn(-c2ccccc2)c(C)c1/C=N/NC(=O)c1cc(C23CC4CC(CC(C4)C2)C3)[nH]n1 | 6.98 µM
CC(C)c1ccccc1OCC(O)CN(CC(O)COc1cccc2ccccc12)C(C)C (configuration not stated) | 4.24 µM
CN1CCN(C2Cc3ccc(Cl)cc3Sc3ccc(F)cc32)CC1 (configuration not stated) | 6.47 µM
Fc1cccc2sc(Nc3nc4cc5c(cc4s3)OCO5)nc12 | > 15 µM (inactive)
O=C(NNC(=S)NC(=O)c1ccc(Br)cc1)c1cccc([N+](=O)[O-])c1 | 0.892 µM
O=C(N/N=C/c1cc(Br)cc(Br)c1O)c1cccc(S(=O)(=O)N2CCOCC2)c1 | 1.17 µM
COc1ccccc1NS(=O)(=O)c1cc(NC(=S)NCC2CCCO2)ccc1C (configuration not stated) | > 15 µM (inactive)
Cc1cccc(C)c1OC1(c2ccccc2)OC(=O)c2ccccc21 (configuration not stated) | 2.85 µM
COc1cccc(/C=C(/C(=O)OCC(=O)NC2CCCC(C)C2C)c2ccccc2)c1 (configuration not stated) | 8.45 µM
CCOc1ccc(/C=N/NC(=S)NC2CC3CC2C2C=CCC32)cc1 (configuration not stated) | 5.48 µM
O=C(COc1ccc(Cl)cc1)Nc1nnc(-c2ccc3c(c2)CCCC3)o1 | 0.369 µM
CC1CCN(c2ccccc2NC(=O)c2ccc(Br)o2)CC1 | 5.29 µM
CCCCOc1ccc(-c2c(C#N)c(N)nc(SCC(N)=O)c2C#N)cc1 | 4.61 µM
Cc1cccc(OCCn2c(NC(=O)c3ccco3)nc3ccccc32)c1 | 2.69 µM
COc1ccc(-c2cc(C3CCN(Cc4cccc(C(F)(F)F)c4)CC3)[nH]n2)cc1 | 9.26 µM
O=C(NC(=S)N(Cc1ccccc1)Cc1ccccc1)c1ccccc1F | 0.752 µM

SMILES | EC50
Oc1ccc(N=Nc2ccc3c(c2)OCCO3)c2ncccc12 | 0.419 µM
Cn1ncc(Cl)c1C(=O)N1CCC2(CC1)OCCO2 | > 15 µM (inactive)
COC(=O)c1c(NC(NC(=O)C(C)(C)C)C(Cl)(Cl)Cl)sc2c1CCC2 (configuration not stated) | 3.28 µM
O=C(Cc1ccc([N+](=O)[O-])cc1)N/N=C/c1ccc([N+](=O)[O-])o1 | 9.86 µM
Cc1cc2oc(=O)cc(CNc3ccccc3F)c2cc1O | 10.2 µM
O=C(Nc1ccc(OC(F)(F)F)cc1)C1CCCN(S(=O)(=O)c2cnc[nH]2)C1 (configuration not stated) | > 15 µM (inactive)
O=C1C2C(c3ccccc3)=NN(c3ccccc3)C2C(=O)N1c1ccccc1 (configuration not stated) | 0.704 µM
Cc1ccc(NC(=O)c2nc[nH]c2C(=O)N[C@@H](CCCCNC(=O)OC(C)(C)C)C(=O)OC(C)(C)C)cc1 | 3.76 µM
COc1ccccc1N1CC(C(=O)Nc2nnc(SCC(=O)NCC3CCCO3)s2)CC1=O (configuration not stated) | > 15 µM (inactive)
COc1cccc(-c2cc(C(=O)NCC3CCCO3)c3cc(Br)cc(C)c3n2)c1 (configuration not stated) | > 15 µM (inactive)
CCCCN(C)S(=O)(=O)c1ccc(C(=O)Nc2nnc(-c3cccs3)o2)cc1 | 0.941 µM
Cn1nnnc1SCC(=O)Nc1nc(-c2ccccc2)c(-c2ccccc2)o1 | 7.27 µM
COCCNC(=O)c1c(NC(=O)c2ccco2)n(Cc2ccccc2)c2nc3ccccc3nc12 | 8.51 µM
Cc1ccc(C)c(NC(=O)CSc2nc3nc(-c4cccs4)cc(C(F)(F)F)c3c(=O)[nH]2)c1 | 3.18 µM
CCCCCCC(=O)N/N=C/c1c(O)n(C(C)CC)c(=S)[nH]c1=O (configuration not stated) | 3.22 µM
C/C(=N\NC(=O)c1cc(Br)ccc1O)c1cccc(NC(=O)c2ccccc2F)c1 | 2.87 µM
Cc1cccc(C)c1OCC(=O)NNC(=S)NC(=O)C1CC1 | 0.304 µM
Cc1cc(C(=O)N/N=C/c2cc(Br)cc([N+](=O)[O-])c2O)c2ccccc2n1 | 0.893 µM
CO[C@H]1C=CO[C@@]2(C)Oc3c(C)c(O)c4c(O)c(c(C=NN5CCN(C)CC5)c(O)c4c3C2=O)NC(=O)C(C)=CC=C[C@H](C)[C@H](O)[C@@H](C)[C@@H](O)[C@@H](C)[C@H](OC(C)=O)[C@@H]1C | < 0.06 µM
COc1ccc(C2C(C(=O)c3ccccc3)=C(C)Nc3nc4ccccc4n32)c(OC)c1 (configuration not stated) | 6.1 µM
O=C(CCC(=O)Nc1ccc(Br)cc1)N/N=C/c1ccccc1O | 5.07 µM
COc1ccc(/C=C/C(=O)NC(=S)NNC(=O)c2ccco2)cc1OC | 4.08 µM
O=C(/C=C/c1ccccc1Cl)c1ccccc(=O)c1O | 0.824 µM
Cc1ccc(SCc2cc(=O)[nH]c(SCC(=O)Nc3cc(Cl)ccc3Cl)n2)cc1 | 6.79 µM
c1ccc(-c2nc(N3CCCCCC3)nc(-n3ccnc3)n2)cc1 | 2.41 µM
O=C(NNC(=O)c1cc(-c2ccccc2)nc2ccccc12)Nc1cccc(Cl)c1 | 3.87 µM
